Reference: US20240018161A1, “MODULATORS OF CYSTIC FIBROSIS TRANSMEMBRANE CONDUCTANCE REGULATOR” (VERTEX PHARMACEUTICALS INCORPORATED, priority 2020, published 2024)
Where two headings read alike, the source gives them in different places.

Molecular target: CFTR-mediated chloride transport in human intestinal epithelial enteroid cells (Homo sapiens, UniProt P13569)
Test: Membrane potential dye, Enteroid Assay A
Assay type: cell-based
Conditions: for EC50: read-out: Ent. A EC50
Procedure, shortened: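 Membrane potential dye (20 μM methyl oxonol, with 30 μM CaCCinh-A01 and 30 μM Chicago Sky Blue) loaded 25 min at room temperature into ROCK-inhibitor-seeded human enteroid cells. Chloride-free stimulation buffer triggered transport, followed by 15 min fluorescence. % Activity relative to 3 μM/3 μM/300 nM triple-combination control.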

[1] = enteroid cells incubated with test compound 18-24 hours, acute 10 μM forskolin and 300 nM N-[2,4-bis(1,1-dimethylethyl)-5-hydroxyphenyl]-1,4-dihydro-4-oxoquinoline-3-carboxamide
[2] = percentage of chloride transport of triple combination control (3 μM N-[(6-amino-2-pyridyl)sulfonyl]-6-(3-fluoro-5-isobutoxy-phenyl)-2-[(4S)-2,2,4-trimethylpyrrolidin-1-yl]pyridine-3-carboxamide based)

Sequence of CFTR-mediated chloride transport in human intestinal epithelial enteroid cells (P13569 with tags, fused parts or gaps DEL508-508): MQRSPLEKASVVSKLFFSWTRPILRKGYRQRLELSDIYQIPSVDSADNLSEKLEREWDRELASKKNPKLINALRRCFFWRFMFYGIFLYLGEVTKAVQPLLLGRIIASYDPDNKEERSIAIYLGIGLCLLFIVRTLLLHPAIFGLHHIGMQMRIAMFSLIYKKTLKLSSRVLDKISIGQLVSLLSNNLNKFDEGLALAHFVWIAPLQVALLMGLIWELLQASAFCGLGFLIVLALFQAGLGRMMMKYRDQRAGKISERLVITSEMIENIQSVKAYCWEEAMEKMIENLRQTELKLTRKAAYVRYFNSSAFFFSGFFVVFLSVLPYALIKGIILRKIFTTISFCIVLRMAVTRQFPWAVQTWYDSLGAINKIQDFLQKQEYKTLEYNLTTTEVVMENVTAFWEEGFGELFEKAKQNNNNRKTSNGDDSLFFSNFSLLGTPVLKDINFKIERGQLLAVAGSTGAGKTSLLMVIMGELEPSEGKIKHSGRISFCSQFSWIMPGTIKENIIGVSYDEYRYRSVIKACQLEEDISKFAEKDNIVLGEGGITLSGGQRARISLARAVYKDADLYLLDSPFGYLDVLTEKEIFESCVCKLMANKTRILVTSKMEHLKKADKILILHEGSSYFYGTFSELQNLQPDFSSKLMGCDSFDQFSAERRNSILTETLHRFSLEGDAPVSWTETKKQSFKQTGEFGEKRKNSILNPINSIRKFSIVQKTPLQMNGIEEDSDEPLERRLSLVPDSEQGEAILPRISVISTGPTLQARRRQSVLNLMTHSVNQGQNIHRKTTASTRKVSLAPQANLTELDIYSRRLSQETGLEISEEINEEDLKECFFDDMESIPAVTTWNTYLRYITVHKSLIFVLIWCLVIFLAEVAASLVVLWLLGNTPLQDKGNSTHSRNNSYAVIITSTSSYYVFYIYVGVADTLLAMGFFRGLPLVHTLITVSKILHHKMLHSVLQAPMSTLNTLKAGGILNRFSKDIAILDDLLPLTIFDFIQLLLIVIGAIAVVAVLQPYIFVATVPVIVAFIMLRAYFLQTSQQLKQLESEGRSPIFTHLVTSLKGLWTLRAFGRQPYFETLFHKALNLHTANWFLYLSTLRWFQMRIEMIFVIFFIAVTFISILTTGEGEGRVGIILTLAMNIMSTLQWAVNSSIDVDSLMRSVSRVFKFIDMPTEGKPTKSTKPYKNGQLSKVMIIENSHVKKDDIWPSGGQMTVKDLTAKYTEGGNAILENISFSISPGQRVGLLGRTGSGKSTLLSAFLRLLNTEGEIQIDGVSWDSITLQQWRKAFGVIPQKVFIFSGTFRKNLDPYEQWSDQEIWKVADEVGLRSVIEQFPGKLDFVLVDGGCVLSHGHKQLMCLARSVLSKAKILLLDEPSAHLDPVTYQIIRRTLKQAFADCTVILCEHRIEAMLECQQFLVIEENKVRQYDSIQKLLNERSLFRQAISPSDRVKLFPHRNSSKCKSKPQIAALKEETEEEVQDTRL

SMILES: Cc1cccc(C)c1-c1cc2nc(n1)NS(=O)(=O)c1cccc(c1)C(=O)N1CCN(C(=O)N(C(C)C)C(C)C)C[C@@H]1CO2 [Compound 167, (8R)-13-(2,6-Dimethylphenyl)-2,17,17-trioxo-N,N-bis(propan-2-yl)-10-oxa-17λ^6-thia-3,6,14,16,23-pentaazatetracyclo[16.3.1.111,15.03,8]tricosa-1(21),11,13,15(23),18(22),19-hexaene-6-carboxamide]
- EC50 [1]: 1000 to 3000 nM
- Ent. A Max Activity (%) [2]: +++ (+++ is >60%)

SMILES: Cc1cccc(C)c1-c1cc2nc(n1)NS(=O)(=O)c1cccc(c1)C(=O)N1CCN(C3CCC4(CC3)CC4)C[C@H](C1)O2 [Compound 13]
- Ent. A Max Activity (%) (Enteroid Assay A): +++ (+++ is >600%)
- EC50 (Enteroid Assay A): < 1000 nM

SMILES: Cc1cccc(C)c1-c1cc2nc(n1)NS(=O)(=O)c1cccc(c1)C(=O)N1CCN(Cc3ccccc3C#N)C[C@@H]1CO2 [Compound 266]
- EC50 [1]: 3000 to 30000 nM
- Ent. A Max Activity (%) [2]: +++ (+++ is >60%)

SMILES: Cc1cccc(C)c1-c1cc2nc(n1)NS(=O)(=O)c1cccc(c1)C(=O)N1C[C@@H](CN(CCC(C)(C)C)[C@@H](CC(C)C)C1)O2 [Compound 155]
- Ent. A Max Activity (%) (Enteroid Assay A): +++ (+++ is >600%)
- EC50 (Enteroid Assay A): < 1000 nM

SMILES: Cc1cccc(C)c1-c1cc2nc(n1)NS(=O)(=O)c1cccc(c1)C(=O)N1C[C@@H](CN(C3CC4(CCCCC4)C3)C[C@H]1C(C)C)O2 [Compound 128, (16R,20R)-12-(2,6-dimethylphenyl)-20-(propan-2-yl)-18-{spiro[3.5]nonan-2-yl}-15-oxa-8λ^6-thia-1,9,11,18,22-pentaazatetracyclo[14.4.1.13,7.110,14]tricosa-3(23),4,6,10(22),11,13-hexaene-2,8,8-trione]
- Ent. A Max Activity (%) (Enteroid Assay A): ++ (++ is 30-60%)
- EC50 (Enteroid Assay A): < 1000 nM

SMILES: Cc1cccc(C)c1-c1cc2nc(n1)NS(=O)(=O)c1cccc(c1)C(=O)N1CC3C(CCCN3C)[C@@H](C1)O2 (single isomer, unassigned) [Compound 203, 12-(2,6-dimethylphenyl)-21-methyl-15-oxa-8λ^6-thia-1,9,11,21,25-pentaazapentacyclo[14.7.1.13,7.110,14.017,22]hexacosa-3,5,7(26),10(25),11,13-hexaene-2,8,8-trione]
- Ent. A Max Activity (%) (Enteroid Assay A): ++ (++ is 30-60%)
- EC50 (Enteroid Assay A): 3000 to 30000 nM

SMILES: Cc1cccc(C)c1-c1cc2nc(n1)NS(=O)(=O)c1cccc(c1)C(=O)N1C[C@@H](CN(C)C[C@@H]1CC(C)(C)C)O2 [Compound 136, (16R,20S)-12-(2,6-Dimethylphenyl)-20-(2,2-dimethylpropyl)-18-methyl-15-oxa-8λ^6-thia-1,9,11,18,22-pentaazatetracyclo[14.4.1.13,7.110,14]tricosa-3(23),4,6,10(22),11,13-hexaene-2,8,8-trione]
- Ent. A Max Activity (%) (Enteroid Assay A): +++ (+++ is >600%)
- EC50 (Enteroid Assay A): < 1000 nM

SMILES: Cc1cccc(C)c1-c1cc2nc(n1)NS(=O)(=O)c1cccc(c1)CN1C[C@@H](CN(CCC(C)(C)C)CC1=O)O2 [Compound 145]
- Ent. A Max Activity (%) (Enteroid Assay A): ++ (++ is 30-60%)
- EC50 (Enteroid Assay A): < 1000 nM

SMILES: Cc1cccc(C)c1-c1cc2nc(n1)NS(=O)(=O)c1cccc(c1)C(=O)N1C[C@@H](CN(C3CC4(CCCCC4)C3)C[C@@H]1C(C)C)O2 [Compound 148]
- Ent. A Max Activity (%) (Enteroid Assay A): +++ (+++ is >600%)
- EC50 (Enteroid Assay A): < 1000 nM

SMILES: Cc1cccc(C)c1-c1cc2nc(n1)NS(=O)(=O)c1cccc(c1)C(=O)N1CCC(c3ccccc3)C(C1)O2 (stereo not drawn) [Compound 317]
- EC50 [1]: < 1000 nM
- Ent. A Max Activity (%) [2]: +++ (+++ is >60%)

SMILES: Cc1cccc(C)c1-c1cc2nc(n1)NS(=O)(=O)c1cccc(c1)C(=O)N1CCN(C3CCC3(C)C)C[C@H](C1)O2 (single isomer, unassigned) [Compound 9]
- Ent. A Max Activity (%) (Enteroid Assay A): +++ (+++ is >600%)
- EC50 (Enteroid Assay A): < 1000 nM

SMILES: Cc1cccc(C)c1-c1cc2nc(n1)NS(=O)(=O)c1cccc(c1)C(=O)N1CCN(CCC(C)C)CC(C1)O2 (stereo not drawn) [Compound 58]
- EC50 [1]: < 1000 nM
- Ent. A Max Activity (%) [2]: +++ (+++ is >60%)

SMILES: Cc1cccc(C)c1-c1cc2nc(n1)NS(=O)(=O)c1cccc(c1)C(=O)N1C[C@@H](CN(CC(C)(C)C)[C@@H](CC(C)C)C1)O2 [Compound 154]
- Ent. A Max Activity (%) (Enteroid Assay A): +++ (+++ is >600%)
- EC50 (Enteroid Assay A): < 1000 nM

SMILES: Cc1cccc(C)c1-c1cc2nc(n1)NS(=O)(=O)c1cccc(c1)C(=O)N1CCN(CCC3CCOCC3)CC(C1)O2 (stereo not drawn) [Compound 60]
- EC50 [1]: 3000 to 30000 nM
- Ent. A Max Activity (%) [2]: +++ (+++ is >60%)

SMILES: Cc1cccc(C)c1-c1cc2nc(n1)NS(=O)(=O)c1cccc(c1)C(=O)N1CCN(CC3(C)COC3)CC(C1)O2 (stereo not drawn) [Compound 56]
- EC50 [1]: 3000 to 30000 nM
- Ent. A Max Activity (%) [2]: ++ (++ is 30-60%)

SMILES: Cc1cccc(C)c1-c1cc2nc(n1)NS(=O)(=O)c1cccc(c1)C(=O)N1CCN(C(=O)C(C)(C)C)C[C@H](C1)O2 [Compound 80, (16R)-12-(2,6-Dimethylphenyl)-18-(2,2-dimethylpropanoyl)-15-oxa-8λ^6-thia-1,9,11,18,22-pentaazatetracyclo[14.4.1.13,7.110,14]tricosa-3(23),4,6,10,12,14(22)-hexaene-2,8,8-trione]
- Ent. A Max Activity (%) (Enteroid Assay A): +++ (+++ is >600%)
- EC50 (Enteroid Assay A): 3000 to 30000 nM

SMILES: Cc1cccc(C)c1-c1cc2nc(n1)NS(=O)(=O)c1cccc(c1)C(=O)N1C[C@@H](CN(C3CC4(CCCC4)C3)C[C@H]1CC(C)C)O2 [Compound 141]
- Ent. A Max Activity (%) (Enteroid Assay A): +++ (+++ is >600%)
- EC50 (Enteroid Assay A): < 1000 nM

SMILES: Cc1cccc(C)c1-c1cc2nc(n1)NS(=O)(=O)c1cccc(c1)C(=O)N1CCN(C(=O)NC(C)C(C)C)C[C@@H]1CO2 (stereo partly drawn) [Compound 292]
- Ent. A Max Activity (%) [2]: ++ (++ is 30-60%)

SMILES: Cc1cccc(C)c1-c1cc2nc(n1)NS(=O)(=O)c1cccc(c1)C(=O)N1CCN(CCC(C)(C)C)C[C@@H](O2)[C@H]1CC(C)C [Compound 159]
- Ent. A Max Activity (%) (Enteroid Assay A): +++ (+++ is >600%)
- EC50 (Enteroid Assay A): < 1000 nM

SMILES: Cc1cccc(C)c1-c1cc2nc(n1)NS(=O)(=O)c1cccc(c1)C(=O)N1CCCC(O2)C1CC(C)C (single isomer, unassigned) [Compound 230, 18-(2,6-Dimethylphenyl)-22-(2-methylpropyl)-2-oxa-14λ^6-thia-7,15,17,20-tetraazatetracyclo[14.3.1.13,7.19,13]docosa-1(20),9(21),10,12,16,18-hexaene-8,14,14-trione]
- EC50 [1]: < 1000 nM
- Ent. A Max Activity (%) [2]: +++ (+++ is >60%)

SMILES: Cc1cccc(C)c1-c1cc2nc(n1)NS(=O)(=O)c1cccc(c1)C(=O)N1CCN(C3CC4(CCC4)C3)C[C@H](C1)O2 [Compound 26]
- Ent. A Max Activity (%) (Enteroid Assay A): +++ (+++ is >600%)
- EC50 (Enteroid Assay A): < 1000 nM

SMILES: Cc1cccc(C)c1-c1cc2nc(n1)NS(=O)(=O)c1cccc(c1)C(=O)N1CCN(C3CCC(C)(C)CC3)C[C@H](C1)O2 [Compound 5, (16R)-18-(4,4-Dimethylcyclohexyl)-12-(2,6-dimethylphenyl)-15-oxa-8λ^6-thia-1,9,11,18,22-pentaazatetracyclo[14.4.1.13,7.110,14]tricosa-3(23),4,6,10,12,14(22)-hexaene-2,8,8-trione]
- Ent. A Max Activity (%): +++ (key: +++ is >600%; ++ is 30-60%; + is <30%)
- EC50: < 1000 nM

SMILES: Cc1cccc(C)c1-c1cc2nc(n1)NS(=O)(=O)c1cnn(c1)CC(=O)N1CCCC(C1)O2 (stereo not drawn) [Compound 354]
- Ent. A Max Activity (%) [2]: + (+ is <300%)

SMILES: Cc1cccc(C)c1-c1cc2nc(n1)NS(=O)(=O)c1cccc(c1)C(=O)N1CCNCC(O2)C1CC(C)C (single isomer, unassigned) [Compound 91, 12-(2,6-Dimethylphenyl)-21-(2-methylpropyl)-15-oxa-8λ^6-thia-1,9,11,18,22-pentaazatetracyclo[14.4.1.13,7.110,14]tricosa-3(23),4,6,10(22),11,13-hexaene-2,8,8-trione]
- Ent. A Max Activity (%) (Enteroid Assay A): +++ (+++ is >600%)
- EC50 (Enteroid Assay A): 1000 to 3000 nM

SMILES: Cc1cccc(C)c1-c1cc2nc(n1)NS(=O)(=O)c1cccc(c1)C(=O)N1CCN(Cc3ccn[nH]3)CC(C1)O2 (stereo not drawn) [Compound 48]
- EC50 [1]: 3000 to 30000 nM
- Ent. A Max Activity (%) [2]: ++ (++ is 30-60%)

SMILES: Cc1cccc(C)c1-c1cc2nc(n1)NS(=O)(=O)c1cccc(c1)C(=O)N1CCN(C3CCCCC3)C[C@H](C1)O2 [Compound 22]
- Ent. A Max Activity (%) (Enteroid Assay A): +++ (+++ is >600%)
- EC50 (Enteroid Assay A): < 1000 nM

SMILES: Cc1cccc(C)c1-c1cc2nc(n1)NS(=N)(=O)c1cccc(c1)C(=O)N1CCN(C(=O)OC(C)(C)C)CC(C1)O2 (stereo not drawn) [Compound 240, tert-butyl 12-(2,6-dimethylphenyl)-8-imino-2,8-dioxo-15-oxa-8λ^6-thia-1,9,11,18,22-pentaazatetracyclo[14.4.1.13,7.110,14]tricosa-3,5,7(23),10,12,14(22)-hexaene-18-carboxylate]
- Ent. A Max Activity (%) (Enteroid Assay A): ++ (++ is 30-60%)
- EC50 (Enteroid Assay A): 3000 to 30000 nM

SMILES: Cc1cccc(C)c1-c1cc2nc(n1)NS(=O)(=O)c1cccc(c1)C(=O)N1CCN(C3CCC3(C)C)C[C@H](C1)O2 (single isomer, unassigned) [Compound 10]
- Ent. A Max Activity (%) (Enteroid Assay A): +++ (+++ is >600%)
- EC50 (Enteroid Assay A): < 1000 nM

SMILES: Cc1cccc(C)c1-c1cc2nc(n1)NS(=O)(=O)c1cccc(c1)C(=O)N1Cc3cccnc3[C@H](C1)O2 (single isomer, unassigned) [Compound 196, 12-(2,6-Dimethylphenyl)-15-oxa-8λ^6-thia-1,9,11,18,25-pentaazapentacyclo[14.7.1.13,7.110,14.017,22]hexacosa-3,5,7(26),10(25),11,13,17,19,21-nonaene-2,8,8-trione]
- Ent. A Max Activity (%) [2]: + (+ is <300%)

SMILES: Cc1cccc(C)c1-c1cc2nc(n1)NS(=O)(=O)c1cccc(c1)C(=O)N1CCN(Cc3ccn[nH]3)C[C@@H]1CO2 [Compound 288]
- Ent. A Max Activity (%) [2]: + (+ is <300%)

SMILES: CNc1ccc(CN2CCN3C(=O)c4cccc(c4)S(=O)(=O)Nc4nc(cc(-c5c(C)cccc5C)n4)OC[C@H]3C2)cn1 [Compound 265]
- EC50 [1]: 3000 to 30000 nM
- Ent. A Max Activity (%) [2]: ++ (++ is 30-60%)

SMILES: Cc1cccc(C)c1-c1cc2nc(n1)NS(=O)(=O)c1cccc(c1)C(=O)N1CCN(Cc3ccc(C#N)cc3)C[C@@H]1CO2 [Compound 270]
- EC50 [1]: 1000 to 3000 nM
- Ent. A Max Activity (%) [2]: +++ (+++ is >60%)
